From patent US20150260740A1, “COMPOSITION FOR USE AS AN ABNORMAL COAGULATION CONTROL PLASMA IN IN VITRO ASSAYS” (GRIFOLS, S.A., priority 2014, published 2015)

Key:
Assay type in all cases: biochemical
[1] = tested on: citrated normal human plasma; test: activated partial thromboplastin time (aPTT) haemostasis assay; conditions: summary statement, added to normal plasma; concentration not stated (EDTA: at a certain concentration)
Description: (§1) To assess the effect of different anticoagulants in various haemostasis assays, different plasma compositions were prepared. Use was made of citrated normal human plasma (16 mM of citrate), stored at a temperature of below −70° C. and thawed in a bath at 37° C. HEPES was then added up to a final concentration of 40 mM and the pH was adjusted to between 7.4 and 7.6 using NaOH 1N. Various plasma compositions were prepared. No anticoagulant was added to the first composition, which was used as a control. Increasing concentrations of the anticoagulants being analysed were added to the others: ferulic acid (0.5% , 1% and 1.5%), heparin (0.1 IU/mL, 0.5 IU/mL and 1 IU/mL) and EDTA (0.5 mg/mL, 1 mg/mL, 1.5 mg/mL). Each plasma composition was analysed for the aforementioned PT, aPTT, TT and RT assays in a Q Haemostasis Analyzer (Diagnostic Grifols, Spain) using the reagents DG-PT, DG-APTT Synth, DG-TT L Human and GD-Fibroclotin of Diagnostic Grifols.
The same plasmas prepared in Example 1 were tested in the aPTT assay (FIG. 4-6). […] In addition, the prolongation in the result of the assay is proportional to the amount of anticoagulant present in the plasma.

[2] = tested on: citrated normal human plasma; test: prothrombin time (PT) haemostasis assay; conditions: for effect on percentage of PT activity versus plasma having no anticoagulant: anticoagulant added to normal plasma: ferulic acid 0.5%, 1%, 1.5%, heparin 0.1, 0.5, 1 IU/mL, EDTA 0.5, 1, 1.5 mg/mL, FIG. 1-3; for effect on PT assay: summary statement, added to normal plasma, concentration not stated (EDTA: at a certain concentration)
Description: as §1
FIG. 1-3 show the results obtained in the PT assay with the various anticoagulants and plot the time obtained in the PT assay as a function of the concentration of the anticoagulant present in the plasma. The control (plasma having no anticoagulant) is shown by triangles and the compositions comprising ferulic acid, heparin and EDTA are shown by squares. […] On the other hand, ferulic acid and EDTA added to normal plasma do produce a reduction in the percentage of PT activity.

[3] = tested on: citrated normal human plasma; test: reptilase time (RT) haemostasis assay; conditions: for effect on RT assay result versus plasma having no anticoagulant: anticoagulant added to normal plasma: ferulic acid 0.5%, 1%, 1.5%, heparin 0.1, 0.5, 1 IU/mL, EDTA 0.5, 1, 1.5 mg/mL, FIG. 10-12; for effect on RT assay: summary statement, added to normal plasma, concentration not stated (EDTA: at a certain concentration)
Description: as §1
The same plasmas prepared in Example 1 were tested in the RT assay.

[4] = tested on: citrated normal human plasma; test: thrombin time (TT) haemostasis assay; conditions: for effect on TT assay result versus plasma having no anticoagulant: anticoagulant added to normal plasma: ferulic acid 0.5%, 1%, 1.5%, heparin 0.1, 0.5, 1 IU/mL, EDTA 0.5, 1, 1.5 mg/mL, FIG. 7-9
Description: as §1
The same plasmas prepared in Example 1 were tested in the TT assay. FIG. 7-9 show the TT results obtained when testing the prepared plasmas.

| effect on RT assay result versus plasma having no anticoagulant [3] | effect on RT assay [3] | Compound | effect on aPTT assay [1] | effect on percentage of PT activity versus plasma having no anticoagulant [2] | effect on PT assay [2] | effect on TT assay result versus plasma having no anticoagulant [4] | effect on TT assay ([4]; summary statement, added to normal plasma, EDTA at a certain concentration) |
| --- | --- | --- | --- | --- | --- | --- | --- |
| do produce an abnormal RT result | can prolong the RT assay | O=C(O)CN(CCN(CC(=O)O)CC(=O)O)CC(=O)O [EDTA, ethylenediaminetetraacetic acid] | does not affect the results of PT, aPTT and TT assays, or does so very slightly | produce a reduction in the percentage of PT activity that is proportional to the amount of anticoagulant present in the plasma | does not affect the results of PT, aPTT and TT assays, or does so very slightly | does not prolong the result of the assay | does not affect the results of PT, aPTT and TT assays, or does so very slightly |
| do produce an abnormal RT result | – | COc1cc(/C=C/C(=O)O)ccc1O [ferulic acid] | – | produce a reduction in the percentage of PT activity that is proportional to the amount of anticoagulant present in the plasma | – | do produce an abnormal TT | – |

| Compound | effect on RT assay result versus plasma having no anticoagulant [3] | effect on RT assay [3] | effect on aPTT assay [1] | effect on percentage of PT activity versus plasma having no anticoagulant [2] | effect on PT assay [2] | effect on TT assay result versus plasma having no anticoagulant [4] | effect on TT assay ([4]; summary statement, added to normal plasma, EDTA at a certain concentration) |
| --- | --- | --- | --- | --- | --- | --- | --- |
| heparin | does not prolong the RT at any of the concentrations tested | does not prolong the RT assay | prolongs the aPTT assay | has no effect on the PT assay | does not affect the PT assay, or does so to a lesser extent | do produce an abnormal TT | – |
